What was measured:
SARS-CoV-2 MPro = SARS-CoV-2 MPro (Severe acute respiratory syndrome coronavirus 2, UniProt P0DTD1); assay: MPro activity assay (de-quenching of Edans fluorescence on cleavage of a Dabcyl/Edans peptide); format: biochemical; settings: for inhibition at 25 µM: read-out: MPro inhibition; for Class (MPro activity class): in-house acquired data, internal screening under standardized conditions (128 compounds)
MPro = settings: compiled from peer-reviewed sources (287 compounds) ref the 18 original articles; cited from earlier work

Molecule | Class (MPro activity class) (SARS-CoV-2 MPro) | Class (MPro activity class) (MPro) | also measured
COc1ccc(S(=O)(=O)Nc2nc3cc(Cl)c(Oc4cccc(Cl)c4Cl)cc3[nH]2)cc1 [30d] | – | – | inhibition at 25 µM (SARS-CoV-2 MPro): 42%
O=S(=O)(Nc1nc2cc(Cl)c(Oc3cccc(Cl)c3Cl)cc2[nH]1)c1ccc(Br)cc1 [32d] | – | – | inhibition at 25 µM (SARS-CoV-2 MPro): 25%
O=C1/C(=C/C=C/c2cccs2)CC/C1=C\C=C\c1cccs1 [37d] | – | – | inhibition at 25 µM (SARS-CoV-2 MPro): 20 to 40%
[O-][n+]1cc[n+]([O-])c2ccccc21 [38d] | – | – | inhibition at 25 µM (SARS-CoV-2 MPro): 20 to 40%
COc1ccc(C2C(C(=O)c3ccc4c(c3)OCCO4)=C(O)C(=O)N2c2nc3ccc(C)cc3s2)cc1 (centres unmarked) [AD81] | 0 (compounds with IC50 > 20 μM, percentage inhibition <80% at 20 µM or 50 μM, or percentage enzyme inhibition <50% at 10 µM were labelled as INACTIVE) | – | –
Cc1ccc2nc(N3C(=O)C(O)=C(C(=O)c4ccc5c(c4)OCCO5)C3c3ccc(O)cc3)sc2c1 (centres unmarked) [AD82] | 0 (compounds with IC50 > 20 μM, percentage inhibition <80% at 20 µM or 50 μM, or percentage enzyme inhibition <50% at 10 µM were labelled as INACTIVE) | – | –
O=C(C1=C(O)C(=O)N(c2nc3ccc(Cl)cc3s2)C1c1ccc(O)cc1)c1ccc2c(c1)OCCO2 (centres unmarked) [AD83] | 0 (compounds with IC50 > 20 μM, percentage inhibition <80% at 20 µM or 50 μM, or percentage enzyme inhibition <50% at 10 µM were labelled as INACTIVE) | – | –
COc1ccc(C2C(C(=O)c3ccc4c(c3)OCCO4)=C(O)C(=O)N2c2nc3ccc(Cl)cc3s2)cc1 (centres unmarked) [AD84] | 0 (compounds with IC50 > 20 μM, percentage inhibition <80% at 20 µM or 50 μM, or percentage enzyme inhibition <50% at 10 µM were labelled as INACTIVE) | – | –
CCCN1C(=O)C(O)=C(C(=O)c2ccccc2)C1c1ccccc1 (centres unmarked) [AD85] | 0 (compounds with IC50 > 20 μM, percentage inhibition <80% at 20 µM or 50 μM, or percentage enzyme inhibition <50% at 10 µM were labelled as INACTIVE) | – | –
COc1ccc(C2C(C(=O)c3ccc4c(c3)OCCO4)=C(O)C(=O)N2c2nc3ccc(OC)cc3s2)cc1 (centres unmarked) [ADKPN160] | 0 (compounds with IC50 > 20 μM, percentage inhibition <80% at 20 µM or 50 μM, or percentage enzyme inhibition <50% at 10 µM were labelled as INACTIVE) | – | –
O=C(C1=C(O)C(=O)N(c2nc3ccccc3s2)C1c1ccc(F)cc1)c1ccc2c(c1)OCCO2 (centres unmarked) [ADKPN161] | 0 (compounds with IC50 > 20 μM, percentage inhibition <80% at 20 µM or 50 μM, or percentage enzyme inhibition <50% at 10 µM were labelled as INACTIVE) | – | –
COc1ccc(C2C(C(=O)c3ccc(OC)c(OC)c3)=C(O)C(=O)N2c2nc3ccc(OC)cc3s2)cc1 (centres unmarked) [ADKPN162] | 0 (compounds with IC50 > 20 μM, percentage inhibition <80% at 20 µM or 50 μM, or percentage enzyme inhibition <50% at 10 µM were labelled as INACTIVE) | – | –
COc1ccc(C2C(C(=O)c3ccc(OC)c(OC)c3)=C(O)C(=O)N2c2nc3ccc(Cl)cc3s2)cc1 (centres unmarked) [ADKPN163] | 0 (compounds with IC50 > 20 μM, percentage inhibition <80% at 20 µM or 50 μM, or percentage enzyme inhibition <50% at 10 µM were labelled as INACTIVE) | – | –
O=c1[nH]cc(-c2cc(-c3cc(Cl)cc(OCc4cccc(F)c4)c3)c(=O)n(-c3cccnc3)c2)c(=O)[nH]1 [compound 19] | – | 1 (Compounds with IC50 < 10 µM or with a percentage of enzyme inhibition >50% at 10 µM were labelled as ACTIVE) | –
O=c1[nH]cc(-c2cc(-c3cc(Cl)cc(OCc4c(F)cccc4F)c3)c(=O)n(-c3cccnc3)c2)c(=O)[nH]1 [compound 20] | – | 1 (Compounds with IC50 < 10 µM or with a percentage of enzyme inhibition >50% at 10 µM were labelled as ACTIVE) | –
O=c1[nH]cc(-c2cc(-c3cc(Cl)cc(OCc4ccccc4Cl)c3)c(=O)n(-c3cccnc3)c2)c(=O)[nH]1 [compound 21] | – | 1 (Compounds with IC50 < 10 µM or with a percentage of enzyme inhibition >50% at 10 µM were labelled as ACTIVE) | –
O=c1[nH]cc(-c2cc(-c3cc(Cl)cc(OCc4ccc(F)cc4Cl)c3)c(=O)n(-c3cccnc3)c2)c(=O)[nH]1 [compound 22] | – | 1 (Compounds with IC50 < 10 µM or with a percentage of enzyme inhibition >50% at 10 µM were labelled as ACTIVE) | –
CC(C)C[C@H](NC(=O)[C@@H](NC(=O)c1cccc(-c2ccccc2)n1)[C@@H](C)O)B(O)O [delanzomib] | – | 0 (compounds with IC50 > 20 μM, percentage inhibition <80% at 20 µM or 50 μM, or percentage enzyme inhibition <50% at 10 µM were labelled as INACTIVE) | –
Nc1ccn([C@H]2C[C@H](O)[C@@H](COP(=O)(O)OP(=O)(O)OP(=O)(O)OP(=O)(O)OC[C@H]3O[C@@H](n4ccc(=O)[nH]c4=O)[C@H](O)[C@@H]3O)O2)c(=O)n1 [denufosol (DB04983), denufosol] | – | 0 (compounds with IC50 > 20 μM, percentage inhibition <80% at 20 µM or 50 μM, or percentage enzyme inhibition <50% at 10 µM were labelled as INACTIVE) | –
C=C(CC)C(=O)c1ccc(OCC(=O)O)c(Cl)c1Cl [ethacrynic acid] | – | 0 (compounds with IC50 > 20 μM, percentage inhibition <80% at 20 µM or 50 μM, or percentage enzyme inhibition <50% at 10 µM were labelled as INACTIVE) | –
C[C@H]1C[C@@H]2[C@H]([C@@H](O)C[C@@]3(C)[C@H]2CC[C@]3(O)C(=O)CO)[C@@]2(C)C=CC(=O)C=C12 [methylprednisolone] | – | 0 (compounds with IC50 > 20 μM, percentage inhibition <80% at 20 µM or 50 μM, or percentage enzyme inhibition <50% at 10 µM were labelled as INACTIVE) | –
Carmofur | – | 1 (Compounds with IC50 < 10 µM or with a percentage of enzyme inhibition >50% at 10 µM were labelled as ACTIVE) | –
Disulfiram | – | 1 (Compounds with IC50 < 10 µM or with a percentage of enzyme inhibition >50% at 10 µM were labelled as ACTIVE) | –
Forsythoside B | – | 1 (Compounds with IC50 < 10 µM or with a percentage of enzyme inhibition >50% at 10 µM were labelled as ACTIVE) | –
MLN9708 | – | 0 (compounds with IC50 > 20 μM, percentage inhibition <80% at 20 µM or 50 μM, or percentage enzyme inhibition <50% at 10 µM were labelled as INACTIVE) | –
Maraviroc | – | 0 (compounds with IC50 > 20 μM, percentage inhibition <80% at 20 µM or 50 μM, or percentage enzyme inhibition <50% at 10 µM were labelled as INACTIVE) | –
Phillyrin | – | 0 (compounds with IC50 > 20 μM, percentage inhibition <80% at 20 µM or 50 μM, or percentage enzyme inhibition <50% at 10 µM were labelled as INACTIVE) | –
TERIFLUNOMIDE | – | 0 (compounds with IC50 > 20 μM, percentage inhibition <80% at 20 µM or 50 μM, or percentage enzyme inhibition <50% at 10 µM were labelled as INACTIVE) | –
cangrelor | – | 0 (compounds with IC50 > 20 μM, percentage inhibition <80% at 20 µM or 50 μM, or percentage enzyme inhibition <50% at 10 µM were labelled as INACTIVE) | –

Reference: publication PMC10323144, “Garbage in, garbage out: how reliable training data improved a virtual screening approach against SARS-CoV-2 MPro” (Frontiers in Pharmacology, 2023)
